Measurements taken from US20080207655A1, “Diaminopyrimidines as P2X3 and P2X2/3 modulators” (Roche Palo Alto LLC, priority 2007, published 2008).

How the values were obtained:
human P2X2/3 receptor = biological target: T1, human P2X2/3 receptor (Homo sapiens, UniProt P56373+Q9UBL9); experiment: P2X2/3 FLIPR (Fluorometric Imaging Plate Reader) assay, CHO-K1 cells, α,β-meATP-evoked calcium fluorescence; assay type: cell-based; conditions: agonist α,β-meATP 5 μM
T1 construct: expressed in transfected cells; host or cells: CHO-K1
T1 sequence (Q9UBL9 1-471): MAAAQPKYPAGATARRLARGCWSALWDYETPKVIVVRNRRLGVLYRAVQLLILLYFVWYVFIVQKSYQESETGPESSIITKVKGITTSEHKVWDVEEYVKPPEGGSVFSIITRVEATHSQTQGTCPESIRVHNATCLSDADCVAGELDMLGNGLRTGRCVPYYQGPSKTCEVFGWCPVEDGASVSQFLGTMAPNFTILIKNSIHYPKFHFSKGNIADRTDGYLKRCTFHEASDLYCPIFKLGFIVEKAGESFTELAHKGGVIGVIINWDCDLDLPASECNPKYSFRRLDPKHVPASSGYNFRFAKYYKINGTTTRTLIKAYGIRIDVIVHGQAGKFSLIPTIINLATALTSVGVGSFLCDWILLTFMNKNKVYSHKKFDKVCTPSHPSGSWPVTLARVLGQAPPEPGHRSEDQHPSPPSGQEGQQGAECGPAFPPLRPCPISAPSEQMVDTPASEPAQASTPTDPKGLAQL
T1 sequence (P56373 1-397): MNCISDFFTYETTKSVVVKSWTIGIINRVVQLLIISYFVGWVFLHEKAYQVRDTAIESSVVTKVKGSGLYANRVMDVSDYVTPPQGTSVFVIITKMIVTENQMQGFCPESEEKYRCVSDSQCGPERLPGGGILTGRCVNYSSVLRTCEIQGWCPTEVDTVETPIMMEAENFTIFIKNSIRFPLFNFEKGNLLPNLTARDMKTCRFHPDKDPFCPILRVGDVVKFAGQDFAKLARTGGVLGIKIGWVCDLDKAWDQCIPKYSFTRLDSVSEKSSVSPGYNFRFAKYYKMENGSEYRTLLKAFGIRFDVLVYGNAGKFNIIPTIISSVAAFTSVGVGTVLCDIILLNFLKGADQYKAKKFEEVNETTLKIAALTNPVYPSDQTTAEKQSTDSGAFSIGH
Experimental: (§1) CHO-K1 cells were transfected with cloned rat P2X3 or human P2X2/3 receptor subunits and passaged in flasks. 18-24 hours before the FLIPR experiment, cells were released from their flasks, centrifuged, and resuspended in nutrient medium at 2.5×10^5 cells/ml. The cells were aliquoted into black-walled 96-well plates at a density of 50,000 cells/well and incubated overnight in 5% CO2 at 37° C. On the day of the experiment, cells were washed in FLIPR buffer (calcium- and magnesium-free Hank's balanced salt solution, 10 mM HEPES, 2 mM CaCl2, 2.5 mM probenecid; FB). Each well received 100 μl FB and 100 μl of the fluorescent dye Fluo-3 AM [2 μM final conc.]. […]
(§2) Test compounds (dissolved in DMSO at 10 mM and serially diluted with FB) or vehicle were added to each well (25 μl of a 4× solution) and allowed to equilibrate for 20 minutes at room temperature. […] Fluorescence was measured for an additional 2 minutes at 1 second intervals after agonist addition. A final addition of ionomycin (5 μM, final concentration) was made to each well of the FLIPR test plate to establish cell viability and maximum fluorescence of dye-bound cytosolic calcium. Peak fluorescence in response to the addition of α,β-meATP (in the absence and presence of test compounds) was measured and inhibition curves generated using nonlinear regression. […]

rat P2X3 receptor = biological target: T2, rat P2X3 receptor (Rattus norvegicus, UniProt P49654); experiment: P2X3 FLIPR (Fluorometric Imaging Plate Reader) assay, CHO-K1 cells, α,β-meATP-evoked calcium fluorescence; assay type: cell-based; conditions: agonist α,β-meATP 1 μM
T2 construct: expressed in transfected cells; host or cells: CHO-K1
T2 sequence (P49654 1-397): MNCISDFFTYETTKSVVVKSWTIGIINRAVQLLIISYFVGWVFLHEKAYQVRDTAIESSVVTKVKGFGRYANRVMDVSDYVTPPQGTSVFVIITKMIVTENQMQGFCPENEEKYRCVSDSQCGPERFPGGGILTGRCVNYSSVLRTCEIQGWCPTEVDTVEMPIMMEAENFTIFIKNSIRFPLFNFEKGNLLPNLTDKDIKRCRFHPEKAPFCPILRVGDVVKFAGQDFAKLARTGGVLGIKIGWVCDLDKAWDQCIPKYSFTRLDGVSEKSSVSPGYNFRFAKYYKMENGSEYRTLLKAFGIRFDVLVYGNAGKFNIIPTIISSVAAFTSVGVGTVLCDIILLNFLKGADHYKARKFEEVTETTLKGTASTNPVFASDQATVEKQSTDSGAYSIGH
Experimental: as §1, §2

A melting point of 135.5 to 139.1 °C was found for C#Cc1cc(Oc2cnc(NC(CO)CO)nc2N)c(C(C)C)cc1OC [4a, 2-[4-Amino-5-(5-ethynyl-2-isopropyl-4-methoxy-phenoxy)-pyrimidin-2-ylamino]-propane-1,3-diol] in this work.
An IC50 (human P2X2/3 receptor; read-out: pIC50 for the P2X2/3 receptor (converted)) of 41.7 nM and an IC50 (rat P2X3 receptor; read-out: pIC50 for the P2X3 receptor (converted)) of 9.77 nM were found for COc1cc(C(C)C)c(Oc2cnc(N)nc2N)cc1I [1b, 5-(5-Iodo-2-isopropyl-4-methoxy-phenoxy)-pyrimidine-2,4-diamine, reference compound] in this work.
With C#Cc1cc(Oc2cnc(N)nc2N)c(C(C)C)cc1O [4-(2,4-Diamino-pyrimidin-5-yloxy)-2-ethynyl-5-isopropyl-phenol] the “pIC50 for the P2X2/3 receptor” value (human P2X2/3 receptor) was “approximately 7.99” and the “pIC50 for the P2X3 receptor” value (rat P2X3 receptor) was “approximately 8.24”.
A melting point of 180 to 180.9 °C was found for COc1cc(C(C)C)c(Oc2cnc(NC(CO)CO)nc2N)cc1S(N)(=O)=O [2a, 5-[4-Amino-2-(2-hydroxy-1-hydroxymethyl-ethylamino)-pyrimidin-5-yloxy]-4-isopropyl-2-methoxy-benzenesulfonamide] in this work.
